Results reported in patent publication US8309129B2, “Nanoparticles comprising a drug, ethylcellulose, and a bile salt” (Bend Research, Inc., priority 2007, dated 2012).
In brackets after ≈: the same amount, converted by molar mass. Like-named read-outs stand apart in the source and are kept apart here.

Experiments:
Format in all cases: physicochemical
[1] = Dynamic light scattering (DLS) of aqueous nanoparticle suspension as formed; details: Tables 5 and 6; valdecoxib suspension samples
Description: The nanoparticles are small particles comprising the drug, ethylcellulose, and a bile salt. By “nanoparticles” is meant a plurality of small particles in which the average size of the particles in suspension is less than about 500 nm. By “average size” is meant the effective cumulant diameter as measured by dynamic light scattering, using for example, Brookhaven Instruments' 90Plus particle sizing instrument. By “size” is meant the diameter for spherical particles, or the maximum diameter for non-spherical particles. Preferably, the average size of the nanoparticles is less than 400 nm, more preferably less 300 nm, more preferably less than 150 nm, more preferably less than 100 nm, and most preferably less than 75 nm.
The width of the particle size distribution in suspension is given by the “polydispersity” of the particles, which is defined as the relative variance in the correlation decay rate distribution, as is known by one skilled in the art. […]
The particle size of the nanoparticles in the aqueous suspension was determined using dynamic light scattering (DLS) as follows. […] Dynamic light-scattering was measured using a Brookhaven Instruments (Holtsville, N.Y.) BI-200SM particle size analyzer with a BI-9000AT correlator. The sums of exponentials from the autocorrelation functions were analyzed using CONTIN software to extract size distributions from the samples. […]

Measurement of free drug = assay: Measurement of free drug
Method: In one embodiment, the compositions of the present invention are capable of improving the concentration of dissolved drug in a use environment relative to a control composition consisting essentially of the drug alone without any ethylcellulose or bile salt. In order to determine concentration enhancement in vitro, the amount of “free” drug, or solvated drug is measured. By “free” drug is meant drug which is in the form of dissolved drug or present in micelles, but which is not in the nanoparticles or any solid particles larger than 500 nm, such as precipitate. A composition of the invention provides concentration enhancement if, when administered to an aqueous use environment, it provides a free drug concentration that is at least 1.25-fold the free drug concentration provided by the control composition. Preferably, the free drug concentration provided by the compositions of the invention are at least about 1.5-fold, more preferably at least about 2-fold, and most preferably at least about 3-fold that provided by the control composition.
The amount of free drug provided by a suspension of the nanoparticles of Example 11 was measured using the following procedure. […]
The amount of free drug provided by a suspension of the nanoparticles of Example 12 was measured as follows. […]

[2] = Nanoparticle dissolution test of valdecoxib in Hank's buffer; details: percent of total drug released per minute, 10 μg/mL, 37° C.
Method: The dissolution rate of valdecoxib from nanoparticles of Example 12 was measured using the dissolution test as follows. The spray-dried composition of Example 12 were added to Hank's buffer to obtain a valdecoxib concentration of about 1 mgA/mL. The suspension was diluted to 10 μg/mL by adding 0.2 mL suspension to 20 mL buffer. The diluted suspension was placed on a shaker table in a 37° C. chamber, and aliquots were removed at 2, 5, and 10 minutes. The aliquots were centrifuged for 5 minutes at 12,000 rpm using a 30,000-dalton molecular-weight cutoff centrifuge tube filter, and 100 μL of the supernatant was added to 250 μL acetonitrile. The samples were assayed by HPLC. Crystalline drug alone was tested for comparison. The dissolution rate for nanoparticles of the invention was 3.6 times that of crystalline drug alone.

Solubility of the drug = assay: Solubility of the drug
[3] = MFD solution, fassgf or other biorelevant, read-out: solubility in MFD solution
[4] = water, read-out: solubility in water

Cc1onc(-c2ccccc2)c1-c1ccc(S(N)(=O)=O)cc1 [Crystalline Valdecoxib, valdecoxib]
Average Particle Size [1]: >1000 nm | Free Drug (Measurement of free drug; Table 5, aqueous suspension prior to spray-drying, 100,000-dalton cutoff filtrate): 11 µg/mL | Free Drug (Measurement of free drug; Table 6, spray-dried composition in dextrose solution, 100,000-dalton cutoff filtrate): 11 µg/mL | Dissolution Rate [2]: 5.0 %/min

Cc1ccc(-c2cc(C(F)(F)F)nn2-c2ccc(S(N)(=O)=O)cc2)cc1 [Drug 1, 4-[5-(4-methylphenyl)-3-(trifluoromethyl)-1H-pyrazol-1-yl]benzenesulfonamide]
solubility (Solubility of the drug; [3]): ~0.04 mg/mL (≈ 105 µM)

Cc1onc(-c2ccccc2)c1-c1ccc(S(N)(=O)=O)cc1 [Drug 2, 4-(5-methyl-3-phenyl-4-isoxazolyl)benzenesulfonamide]
solubility (Solubility of the drug; [4]): ~0.01 mg/mL (≈ 31.8 µM)

CCOC(=O)N1c2ccc(C(F)(F)F)cc2[C@@H](N(Cc2cc(C(F)(F)F)cc(C(F)(F)F)c2)C(=O)OC)C[C@H]1CC [Drug 3, [2R,4S]4-[(3,5-bis-trifluoromethyl-benzyl)-methoxycarbonyl-amino]-2-ethyl-6-trifluoromethyl-3,4-dihydro-2H-quinoline-1-carboxylic acid ethyl ester]
solubility (Solubility of the drug; [4]): < 0.0001 mg/mL

CC[C@@H]1C[C@H](N(Cc2cc(C(F)(F)F)cc(C(F)(F)F)c2)C(C)=O)c2cc(C(F)(F)F)ccc2N1C(=O)OC(C)C [Drug 4, [2R,4S]4-[acetyl-(3,5-bis-trifluoromethyl-benzyl)-amino]-2-ethyl-6-trifluoromethyl-3,4-dihydro-2H-quinoline-1-carboxylic acid isopropyl ester]
solubility (Solubility of the drug; [3]): ~0.011 mg/mL (≈ 18.4 µM)
